As a reminder, the IC50 is the midpoint of a concentration-inhibition curve.

Results on 24 compounds are retold here after patent US11028090B2 (Dong Wha Pharm. Co., Ltd., priority 2017, dated 2021).

In assay [1] the target is BRD4 (BD1+BD2) bromodomain (Homo sapiens (Human), UniProt O60885). The assay can be described thus: BRD4 binding inhibition (AlphaScreen, GST-BRD4 vs tetraacetylated histone H4 peptide). The procedure, abridged: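 AlphaScreen read after 30 min dark incubation at room temperature with glutathione acceptor/streptavidin donor beads (10 μg/ml each). The beads were added to compound plus 100 nM biotin-H4 (K5,8,12,16-acetyl) peptide and 100 nM GST-BRD4 BD1+BD2 in pH 7.4 HEPES/Tween/BSA/DTT buffer.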
On the technique in general: Bead proximity is the source of the signal in Alpha formats.

Assay [2] relates to acute myelogenous leukemia cells (MV-4-11 cells). The assay can be described thus: Cytotoxicity to acute myelogenous leukemia cells (MV-4-11 cells), CCK-8. Conditions: Homo sapiens, MV4-11, 72 h.
[3] abbreviates: GST-BRD4 (BD1+BD2) / biotinylated acetyl-histone H4 (Lys5,8,12,16) peptide, read-out: IC50, BRD4 binding inhibition.
[4] abbreviates: GST-BRD4 (BD1+BD2) vs biotinylated acetyl-histone H4 peptide, AlphaScreen, read-out: BRD4 IC50.
Where [5] appears, read: read-out: IC50, cytotoxicity against acute myelogenous leukemia cells.
Setting [6] is: read-out: MV-4-11 Cytotoxicity IC50.

Like-named read-outs stand apart in the source and are kept apart here.

For the compound `CCC(C)OC(=O)NCCCCNc1nc2cc(OC)ccc2n2c(C)nnc12` (stereo not drawn) [Example 280, [4-(7-methoxy-1-methyl-[1,2,4]triazolo[4,3-a]quinoxaline-4-ylamino)-butyl]-carbamic acid-sec-butylester], the half-maximal inhibitory concentration (IC50) is no more than 50 nM in assay [1] (setting [3]), 14 nM in assay [1] (setting [4]), no more than 200 nM in assay [2] (setting [5]) and 40 nM in assay [2] (setting [6]).
Regarding `COc1ccc2c(c1)nc(NCCCCNC(=O)C(C)C)c1nnc(C)n12` [Example 281, N-[4-(7-methoxy-1-methyl-[1,2,4]triazolo[4,3-a]quinoxaline-4-ylamino)-butyl]-isobutyramide], the IC50 in assay [1] (setting [3]) was no more than 10 nM; in assay [1] (setting [4]), 0.4 nM; in assay [2] (setting [5]), no more than 200 nM; in assay [2] (setting [6]) it was 158 nM.
`C/C=C/C(=O)NCCCCNc1nc2cc(OC)ccc2n2c(C)nnc12` [Example 283, butene-2-oic acid-[4-(7-methoxy-1-methyl-[1,2,4]triazolo[4,3-a]quinoxaline-4-ylamino)-butyl]-amide]: the IC50 was determined as 51 nM in assay [1] (setting [4]) and 176 nM in assay [2] (setting [6]).
As to `COc1ccc2c(c1)nc(NCCCCNC(=O)C=C(C)C)c1nnc(C)n12` [Example 284, 3-methyl-butene-2-oic acid-[4-(7-methoxy-1-methyl-[1,2,4]triazolo[4,3-a]quinoxaline-4-ylamino)-butyl]-amide], the IC50 in assay [1] (setting [3]) was no more than 10 nM; in assay [1] (setting [4]) it was 9 nM; in assay [2] (setting [5]), no more than 200 nM; in assay [2] (setting [6]) it was 173 nM.
With `COc1ccc2c(c1)nc(NCCCCNC(=O)[C@@H](F)C(C)C)c1nnc(C)n12` [Example 286, 2-(S)-fluoro-N-[4-(7-methoxy-1-methyl-[1,2,4]triazolo[4,3-a]quinoxaline-4-ylamino)-butyl]-3-methyl-butyramide], the IC50 in assay [1] (setting [3]) was no more than 50 nM; in assay [1] (setting [4]), 30 nM; in assay [2] (setting [5]) it was no more than 200 nM; in assay [2] (setting [6]), 26 nM.
As for `COc1ccc2c(c1)nc(NCCCCNC(=O)CC(C)(C)C)c1nnc(C)n12` [Example 287, N-[4-(7-methoxy-1-methyl-[1,2,4]triazolo[4,3-a]quinoxaline-4-ylamino)-butyl]-3,3-dimethyl-butyramide], the IC50 in assay [1] (setting [4]) is 67 nM; in assay [2] (setting [5]) it was no more than 200 nM; in assay [2] (setting [6]) it was 125 nM.
As to `COc1ccc2c(c1)nc(NCCCCNC(=O)CCC(C)C)c1nnc(C)n12` [Example 288, 4-methyl-pentanoic acid-[4-(7-methoxy-1-methyl-[1,2,4]triazolo[4,3-a]quinoxaline-4-ylamino)-butyl]-amide], the 50% inhibitory concentration (IC50) was no more than 50 nM in assay [1] (setting [3]), 15 nM in assay [1] (setting [4]), no more than 200 nM in assay [2] (setting [5]) and 34 nM in assay [2] (setting [6]).
As to `CCC(C)CC(=O)NCCCCNc1nc2cc(OC)ccc2n2c(C)nnc12` (stereo not drawn) [Example 289, 3-methyl-pentanoic acid-[4-(7-methoxy-1-methyl-[1,2,4]triazolo[4,3-a]quinoxaline-4-ylamino)-butyl]-amide], the IC50 in assay [1] (setting [3]) was no more than 50 nM; in assay [1] (setting [4]), 12 nM; in assay [2] (setting [5]), no more than 200 nM; in assay [2] (setting [6]), 26 nM.
For the compound `CCC(CC)C(=O)NCCCCNc1nc2cc(OC)ccc2n2c(C)nnc12` [Example 290, 2-ethyl-N-[4-(7-methoxy-1-methyl-[1,2,4]triazolo[4,3-a]quinoxaline-4-ylamino)-butyl]-butyramide], the IC50 in assay [1] (setting [3]) is no more than 50 nM; in assay [1] (setting [4]), 23 nM; in assay [2] (setting [5]), no more than 200 nM; in assay [2] (setting [6]), 150 nM.
For the compound `CCC(C)C(=O)NCCCCNc1nc2cc(OC)ccc2n2c(C)nnc12` (stereo not drawn) [Example 291, N-[4-(7-methoxy-1-methyl-[1,2,4]triazolo[4,3-a]quinoxaline-4-ylamino)-butyl]-2-methyl-butyramide], the IC50 in assay [1] (setting [4]) is 97 nM; in assay [2] (setting [6]) it was 290 nM.
With `COc1ccc2c(c1)nc(NCCCCNC(=O)C(F)(F)C(F)(F)C(F)(F)F)c1nnc(C)n12` [Example 292, 2,2,3,3,4,4,4-heptafluoro-N-[4-(7-methoxy-1-methyl-[1,2,4]triazolo[4,3-a]quinoxaline-4-ylamino)-butyl]-butyramide], the half-maximal inhibitory concentration (IC50) was 24 nM in assay [1] (setting [4]); no more than 50 nM in assay [1] (IC50, BRD4 binding inhibition, GST-BRD4 (BD1+BD2) / biotinylated acetyl-histone H4 (Lys5,8,12,16) peptide); no more than 200 nM in assay [2] (setting [5]); 158 nM in assay [2] (setting [6]).
For `COc1ccc2c(c1)nc(NCCCCNC(=O)C(C)(C)C(F)(F)F)c1nnc(C)n12` [Example 293, 3,3,3-trifluoro-N-[4-(7-methoxy-1-methyl-[1,2,4]triazolo[4,3-a]quinoxaline-4-ylamino)-butyl]-2,2-dimethyl-propaneamide], the IC50 in assay [1] (setting [3]) was no more than 50 nM; in assay [1] (setting [4]), 40 nM; in assay [2] (setting [6]), 673 nM.
Consider `CCC(F)(F)C(=O)NCCCCNc1nc2cc(OC)ccc2n2c(C)nnc12` [Example 294, 2,2-difluoro-N-[4-(7-methoxy-1-methyl-[1,2,4]triazolo[4,3-a]quinoxaline-4-ylamino)-butyl]-butyramide], for which the IC50 in assay [1] (setting [3]) was no more than 50 nM; in assay [1] (setting [4]), 15 nM; in assay [2] (setting [6]) it was 203 nM.
The corresponding values for `COc1ccc2c(c1)nc(NCCCCNC(=O)[C@H](O)C(C)C)c1nnc(C)n12` [Example 298, 2-(R)-hydroxy-N-[4-(7-methoxy-1-methyl-[1,2,4]triazolo[4,3-a]quinoxaline-4-ylamino)-butyl]-3-methyl-butyramide] are no more than 10 nM, 4 nM and 270 nM.
For `COc1ccc2c(c1)nc(NCCCCNC(=O)[C@@H](O)C(C)C)c1nnc(C)n12` [Example 299, 2-(S)-hydroxy-N-[4-(7-methoxy-1-methyl-[1,2,4]triazolo[4,3-a]quinoxaline-4-ylamino)-butyl]-3-methyl-butyramide], in that order: no more than 10 nM, 7 nM and 375 nM.
In the case of `COc1ccc2c(c1)nc(NCCCCNC(=O)[C@H](OC)C(C)C)c1nnc(C)n12` [Example 300, 2-(R)-methoxy-N-[4-(7-methoxy-1-methyl-[1,2,4]triazolo[4,3-a]quinoxaline-4-ylamino)-butyl]-3-methyl-butyramide], the IC50 is no more than 50 nM in assay [1] (setting [3]), 15 nM in assay [1] (setting [4]) and 310 nM in assay [2] (setting [6]).
For the compound `COc1ccc2c(c1)nc(NCCCCNC(=O)[C@@H](Br)C(C)C)c1nnc(C)n12` [Example 302, 2-(S)-bromo-N-[4-(7-methoxy-1-methyl-[1,2,4]triazolo[4,3-a]quinoxaline-4-ylamino)-butyl]-3-methyl-butyramide], the IC50 was no more than 10 nM in assay [1] (setting [3]), 8 nM in assay [1] (setting [4]), no more than 200 nM in assay [2] (setting [5]) and 66 nM in assay [2] (setting [6]).
Take `COc1ccc2c(c1)nc(NCCCCNC(=O)Cc1cccs1)c1nnc(C)n12` [Example 307, N-[4-(7-methoxy-1-methyl-[1,2,4]triazolo[4,3-a]quinoxaline-4-ylamino)-butyl]-2-thiophene-2-yl-acetamide]: the IC50 in assay [1] (setting [3]) was no more than 50 nM; in assay [1] (setting [4]), 22 nM; in assay [2] (setting [5]), no more than 200 nM; in assay [2] (setting [6]), 10 nM.
Turning to `COc1ccc2c(c1)nc(NCCCCNC(=O)Cc1ccco1)c1nnc(C)n12` [Example 308, 2-furan-2-yl-N-[4-(7-methoxy-1-methyl-[1,2,4]triazolo[4,3-a]quinoxaline-4-ylamino)-butyl]-acetamide], the IC50 is 58 nM in assay [1] (setting [4]), no more than 200 nM in assay [2] (setting [5]) and 20 nM in assay [2] (setting [6]).
As for `COc1ccc2c(c1)nc(NCCCCNC(=O)CCC1CCCC1)c1nnc(C)n12` [Example 309, 3-cyclopentyl-N-[4-(7-methoxy-1-methyl-[1,2,4]triazolo[4,3-a]quinoxaline-4-ylamino)-butyl]-propionamide], the IC50 was no more than 10 nM in assay [1] (setting [3]), no more than 200 nM in assay [2] (setting [5]) and 110 nM in assay [2] (setting [6]).
As for `COc1ccc2c(c1)nc(NCCCCNC(=O)C(NC(=O)OC(C)(C)C)C(C)C)c1nnc(C)n12` (stereo not drawn) [Example 310, {1-[4-(7-methoxy-1-methyl-[1,2,4]triazolo[4,3-a]quinoxaline-4-ylamino)-butylcarbamoyl]-2-methyl-propyl}-carbamic acid-tert-butylester], the IC50 is no more than 50 nM in assay [1] (setting [3]), 42 nM in assay [1] (setting [4]), no more than 200 nM in assay [2] (setting [5]) and 126 nM in assay [2] (setting [6]).
As for `COc1ccc2c(c1)nc(NCCCCNC(=O)C(N)C(C)C)c1nnc(C)n12` (stereo not drawn) [Example 311, 2-amino-N-[4-(7-methoxy-1-methyl-[1,2,4]triazolo[4,3-a]quinoxaline-4-ylamino)-butyl]-3-methyl-butyramide], the IC50 in assay [1] (setting [3]) was no more than 50 nM; in assay [1] (setting [4]), 43 nM; in assay [2] (setting [6]) it was 208 nM.
Turning to `COc1ccc2c(c1)nc(NCCCCNC(=O)[C@@H](C(C)C)N(C)C)c1nnc(C)n12` [Example 312, 2-(R)-dimethylamino-N-[4-(7-methoxy-1-methyl-[1,2,4]triazolo[4,3-a]quinoxaline-4-ylamino)-butyl]-3-methyl-butyramide], the results for the IC50 in assay [1] (setting [3]), in assay [1] (setting [4]) and in assay [2] (setting [6]) were no more than 50 nM, 18 nM and 510 nM, respectively.
For `COc1ccc2c(c1)nc(NCCCCNC(=O)[C@H](C(C)C)N(C)C)c1nnc(C)n12` [Example 313, 2-(S)-dimethylamino-N-[4-(7-methoxy-1-methyl-[1,2,4]triazolo[4,3-a]quinoxaline-4-ylamino)-butyl]-3-methyl-butyramide], in that order: no more than 50 nM, 33 nM and 570 nM.
